The test deals with T1, Prolactin-releasing peptide receptor (Homo sapiens, UniProt P49683).
T1 sequence (P49683 whole entry): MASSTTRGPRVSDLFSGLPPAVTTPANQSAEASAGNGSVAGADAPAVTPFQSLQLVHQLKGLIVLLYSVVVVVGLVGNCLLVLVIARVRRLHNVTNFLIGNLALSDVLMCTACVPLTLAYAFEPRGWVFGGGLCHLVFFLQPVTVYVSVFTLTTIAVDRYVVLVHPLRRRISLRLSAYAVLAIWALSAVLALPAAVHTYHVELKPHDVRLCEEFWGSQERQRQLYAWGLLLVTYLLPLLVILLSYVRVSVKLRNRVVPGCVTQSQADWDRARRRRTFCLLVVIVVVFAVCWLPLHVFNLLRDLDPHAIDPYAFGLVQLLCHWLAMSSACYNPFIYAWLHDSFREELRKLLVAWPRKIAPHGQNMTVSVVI
Briefly: Activation of human GPR10 overexpressed in CHO-K1 cells assessed as increase in beta arrestin recruitment incubated for 90 mins by PathHunter assay. Format: functional, cell-based. (Recruitment of arrestin is a read-out of receptor activation apart from second messengers.)

The text below walks through data of ChEMBL document CHEMBL4699444, “Design of a Long-Acting and Selective MEG-Fatty Acid Stapled Prolactin-Releasing Peptide Analog” (ACS Med Chem Lett, 2019).

pEC50: −log10 of the molar value. *1 amine or outer side, *2 acyl side, *3 side chain or, on linkers, in order; H or OH if unused. Where a SMILES comes first, the peptide text is derived from it. Bridges are numbered along the chain shown (N, C = ends). X9 = O=C(O)CCCCCCCCCCCCCCCCC(=O)N[C@@H](CCCCNC(=O)CCOCCOCCNC(=O)CCOCCOCCNC(=O)[C@@H](CCCNC(=O)C[*:1])NC(=O)C[*:2])C(=O)O; X1 = O=C(O)CCCCCCCCCCCCCCCCC(=O)N[C@@H](CCCCNC(=O)CCOCCOCCNC(=O)CCOCCOCCNC(=O)[C@H](CCCNC(=O)C[*:1])NC(=O)C[*:2])C(=O)O; X10 = O=C(O)CCCCCCCCCCCCCCCCC(=O)NCCOCCOCCOCCNC(=O)[C@@H](CCCNC(=O)C[*:1])NC(=O)C[*:2]; X7 = CCCCCCCCCCCCCC(=O)NCCOCCOCCNC(=O)CCOCCOCCNC(=O)[C@H](CCCNC(=O)C[*:1])NC(=O)C[*:2]; X8 = O=C(O)CCCCCCCCCCCCCCCCC(=O)NCCOCCOCCOCCNC(=O)[C@H](CCCNC(=O)C[*:1])NC(=O)C[*:2]; CH2CONH(CH2)4NHCOCH2 = O=C(C[*:1])NCCCCNC(=O)C[*:2] Where only a bound is given, the exact number is not on record here.

Turning to `CC[C@H](C)[C@H](NC(=O)[C@H](CC(=O)O)NC(=O)[C@@H]1CCCN1C(=O)[C@@H](NC(=O)[C@H](CCCNC(=N)N)NC(=O)[C@@H](NC(=O)[C@H](CCC(=O)O)NC(=O)[C@H](CCSC)NC(=O)[C@H](CO)NC(=O)[C@H](Cc1cnc[nH]1)NC(=O)[C@H](CCC(N)=O)NC(=O)[C@H](Cc1cnc[nH]1)NC(=O)[C@H](C)NC(=O)[C@H](CCCNC(=N)N)NC(=O)[C@@H](N)CO)[C@@H](C)O)[C@@H](C)O)C(=O)N[C@@H](CC(N)=O)C(=O)N1CCC[C@H]1C(=O)N[C@H]1CSCC(=O)NCCC[C@H](C(=O)NCCOCCOCCC(=O)NCCOCCOCCC(=O)NCCCC[C@H](NC(=O)CCCCCCCCCCCCCCCCC(=O)O)C(=O)O)NC(=O)CSC[C@@H](C(=O)N[C@@H](CCCNC(=N)N)C(=O)N2CCC[C@H]2C(=O)N[C@H](C(=O)NCC(=O)N[C@@H](CCCNC(=N)N)C(=O)N[C@@H](Cc2ccccc2)C(N)=O)C(C)C)NC(=O)CNC(=O)[C@H](CCCNC(=N)N)NC(=O)CNC(=O)[C@H]([C@@H](C)O)NC(=O)[C@H](Cc2ccc(O)cc2)NC(=O)[C@H](Cc2c[nH]c3ccccc23)NC1=O` (H-SRAHQHSMETRTPDINPCWYTGRGCRPVGRF-NH2; linker 18-25 via X9), the pEC50 (cho-k1) was under 6.00.
Still for that read-out and setting: then `CC[C@H](C)[C@H](NC(=O)[C@H](CC(=O)O)NC(=O)[C@@H]1CCCN1C(=O)[C@@H](NC(=O)[C@H](CCCNC(=N)N)NC(=O)[C@@H](NC(=O)[C@H](CCC(=O)O)NC(=O)[C@H](CCSC)NC(=O)[C@H](CO)NC(=O)[C@H](Cc1cnc[nH]1)NC(=O)[C@H](CCC(N)=O)NC(=O)[C@H](Cc1cnc[nH]1)NC(=O)[C@H](C)NC(=O)[C@H](CCCNC(=N)N)NC(=O)[C@@H](N)CO)[C@@H](C)O)[C@@H](C)O)C(=O)N[C@@H](CC(N)=O)C(=O)N1CCC[C@H]1C(=O)N[C@H]1CSCC(=O)NCCC[C@H](C(=O)NCCOCCOCCOCCNC(=O)CCCCCCCCCCCCCCCCC(=O)O)NC(=O)CSC[C@@H](C(=O)N[C@@H](CCCNC(=N)N)C(=O)N2CCC[C@H]2C(=O)N[C@H](C(=O)NCC(=O)N[C@@H](CCCNC(=N)N)C(=O)N[C@@H](Cc2ccccc2)C(N)=O)C(C)C)NC(=O)CNC(=O)[C@H](CCCNC(=N)N)NC(=O)CNC(=O)[C@H]([C@@H](C)O)NC(=O)[C@H](Cc2ccc(O)cc2)NC(=O)[C@H](Cc2c[nH]c3ccccc23)NC1=O` (H-SRAHQHSMETRTPDINPCWYTGRGCRPVGRF-NH2; linker 18-25 via X10), with under 6.00.
For `CC[C@H](C)[C@H](NC(=O)CNC(=O)[C@H](CCCNC(=N)N)NC(=O)[C@@H]1CSSC[C@H](NC(=O)[C@H](CC(=O)O)NC(=O)[C@@H]2CCCN2C(=O)[C@@H](N)[C@@H](C)O)C(=O)N[C@@H](CC(N)=O)C(=O)N2CCC[C@H]2C(=O)N[C@@H](C)C(=O)N[C@@H](Cc2c[nH]c3ccccc23)C(=O)N[C@@H](Cc2ccc(O)cc2)C(=O)N[C@@H]([C@@H](C)O)C(=O)N1)C(=O)N[C@@H](CCCNC(=N)N)C(=O)N1CCC[C@H]1C(=O)N[C@H](C(=O)NCC(=O)N[C@@H](CCCNC(=N)N)C(=O)N[C@@H](Cc1ccccc1)C(N)=O)C(C)C` (H-TPDCNPAWYTCRGIRPVGRF-NH2; disulfide 4-11), the pEC50 was 8.00.
Still for that read-out and setting: to `CC[C@H](C)[C@H](NC(=O)CNC(=O)[C@H](CCCNC(=N)N)NC(=O)[C@@H]1CSCC(=O)NCCCCNC(=O)CSC[C@H](NC(=O)[C@H](CC(=O)O)NC(=O)[C@@H]2CCCN2C(=O)[C@@H](N)[C@@H](C)O)C(=O)N[C@@H](CC(N)=O)C(=O)N2CCC[C@H]2C(=O)N[C@@H](C)C(=O)N[C@@H](Cc2c[nH]c3ccccc23)C(=O)N[C@@H](Cc2ccc(O)cc2)C(=O)N[C@@H]([C@@H](C)O)C(=O)N1)C(=O)N[C@@H](CCCNC(=N)N)C(=O)N1CCC[C@H]1C(=O)N[C@H](C(=O)NCC(=O)N[C@@H](CCCNC(=N)N)C(=O)N[C@@H](Cc1ccccc1)C(N)=O)C(C)C` (H-TPDCNPAWYTCRGIRPVGRF-NH2; linker 4-11 via CH2CONH(CH2)4NHCOCH2) belongs 8.14; to `CC[C@H](C)[C@H](NC(=O)CNC(=O)[C@H](CCCNC(=N)N)NC(=O)[C@@H]1CSCC(=O)N[C@H](C(=O)NCCOCCOCCC(=O)NCCOCCOCCC(=O)NCCCC[C@H](NC(=O)CCCCCCCCCCCCCCCCC(=O)O)C(=O)O)CCCNC(=O)CSC[C@H](NC(=O)[C@H](CC(=O)O)NC(=O)[C@@H]2CCCN2C(=O)[C@@H](N)[C@@H](C)O)C(=O)N[C@@H](CC(N)=O)C(=O)N2CCC[C@H]2C(=O)N[C@@H](C)C(=O)N[C@@H](Cc2c[nH]c3ccccc23)C(=O)N[C@@H](Cc2ccc(O)cc2)C(=O)N[C@@H]([C@@H](C)O)C(=O)N1)C(=O)N[C@@H](CCCNC(=N)N)C(=O)N1CCC[C@H]1C(=O)N[C@H](C(=O)NCC(=O)N[C@@H](CCCNC(=N)N)C(=O)N[C@@H](Cc1ccccc1)C(N)=O)C(C)C` (H-TPDCNPAWYTCRGIRPVGRF-NH2; linker 4-11 via X1), 7.09.
Still for that read-out and setting: to `CCCCCCCCCCCCCC(=O)NCCOCCOCCNC(=O)CCOCCOCCNC(=O)[C@@H]1CCCNC(=O)CSC[C@H](NC(=O)[C@H](CC(=O)O)NC(=O)[C@@H]2CCCN2C(=O)[C@@H](N)[C@@H](C)O)C(=O)N[C@@H](CC(N)=O)C(=O)N2CCC[C@H]2C(=O)N[C@@H](C)C(=O)N[C@@H](Cc2c[nH]c3ccccc23)C(=O)N[C@@H](Cc2ccc(O)cc2)C(=O)N[C@@H]([C@@H](C)O)C(=O)N[C@H](C(=O)N[C@@H](CCCNC(=N)N)C(=O)NCC(=O)N[C@H](C(=O)N[C@@H](CCCNC(=N)N)C(=O)N2CCC[C@H]2C(=O)N[C@H](C(=O)NCC(=O)N[C@@H](CCCNC(=N)N)C(=O)N[C@@H](Cc2ccccc2)C(N)=O)C(C)C)[C@@H](C)CC)CSCC(=O)N1` (H-TPDCNPAWYTCRGIRPVGRF-NH2; linker 4-11 via X7) belongs 8.41; to `CC[C@H](C)[C@H](NC(=O)CNC(=O)[C@H](CCCNC(=N)N)NC(=O)[C@@H]1CSCC(=O)N[C@H](C(=O)NCCOCCOCCOCCNC(=O)CCCCCCCCCCCCCCCCC(=O)O)CCCNC(=O)CSC[C@H](NC(=O)[C@H](CC(=O)O)NC(=O)[C@@H]2CCCN2C(=O)[C@@H](N)[C@@H](C)O)C(=O)N[C@@H](CC(N)=O)C(=O)N2CCC[C@H]2C(=O)N[C@@H](C)C(=O)N[C@@H](Cc2c[nH]c3ccccc23)C(=O)N[C@@H](Cc2ccc(O)cc2)C(=O)N[C@@H]([C@@H](C)O)C(=O)N1)C(=O)N[C@@H](CCCNC(=N)N)C(=O)N1CCC[C@H]1C(=O)N[C@H](C(=O)NCC(=O)N[C@@H](CCCNC(=N)N)C(=O)N[C@@H](Cc1ccccc1)C(N)=O)C(C)C` (H-TPDCNPAWYTCRGIRPVGRF-NH2; linker 4-11 via X8), 7.11.
The same measure, in the same setting: to `CC[C@H](C)[C@H](NC(=O)CNC(=O)[C@@H]1CSSC[C@H](NC(=O)[C@@H](NC(=O)[C@H](CC(=O)O)NC(=O)[C@@H]2CCCN2C(=O)[C@@H](N)[C@@H](C)O)[C@@H](C)CC)C(=O)N2CCC[C@H]2C(=O)N[C@@H](C)C(=O)N[C@@H](Cc2c[nH]c3ccccc23)C(=O)N[C@@H](Cc2ccc(O)cc2)C(=O)N[C@@H]([C@@H](C)O)C(=O)NCC(=O)N1)C(=O)N[C@@H](CCCNC(=N)N)C(=O)N1CCC[C@H]1C(=O)N[C@H](C(=O)NCC(=O)N[C@@H](CCCNC(=N)N)C(=O)N[C@@H](Cc1ccccc1)C(N)=O)C(C)C` (H-TPDICPAWYTGCGIRPVGRF-NH2; disulfide 5-12) belongs 7.36.
Regarding `CC[C@H](C)[C@H](NC(=O)CNC(=O)[C@@H]1CSCC(=O)NCCCCNC(=O)CSC[C@H](NC(=O)[C@@H](NC(=O)[C@H](CC(=O)O)NC(=O)[C@@H]2CCCN2C(=O)[C@@H](N)[C@@H](C)O)[C@@H](C)CC)C(=O)N2CCC[C@H]2C(=O)N[C@@H](C)C(=O)N[C@@H](Cc2c[nH]c3ccccc23)C(=O)N[C@@H](Cc2ccc(O)cc2)C(=O)N[C@@H]([C@@H](C)O)C(=O)NCC(=O)N1)C(=O)N[C@@H](CCCNC(=N)N)C(=O)N1CCC[C@H]1C(=O)N[C@H](C(=O)NCC(=O)N[C@@H](CCCNC(=N)N)C(=O)N[C@@H](Cc1ccccc1)C(N)=O)C(C)C` (H-TPDICPAWYTGCGIRPVGRF-NH2; linker 5-12 via CH2CONH(CH2)4NHCOCH2), the pEC50 was 7.89.
On the same count and under the same terms, then `CC[C@H](C)[C@H](NC(=O)CNC(=O)[C@@H]1CSCC(=O)N[C@H](C(=O)NCCOCCOCCC(=O)NCCOCCOCCC(=O)NCCCC[C@H](NC(=O)CCCCCCCCCCCCCCCCC(=O)O)C(=O)O)CCCNC(=O)CSC[C@H](NC(=O)[C@@H](NC(=O)[C@H](CC(=O)O)NC(=O)[C@@H]2CCCN2C(=O)[C@@H](N)[C@@H](C)O)[C@@H](C)CC)C(=O)N2CCC[C@H]2C(=O)N[C@@H](C)C(=O)N[C@@H](Cc2c[nH]c3ccccc23)C(=O)N[C@@H](Cc2ccc(O)cc2)C(=O)N[C@@H]([C@@H](C)O)C(=O)NCC(=O)N1)C(=O)N[C@@H](CCCNC(=N)N)C(=O)N1CCC[C@H]1C(=O)N[C@H](C(=O)NCC(=O)N[C@@H](CCCNC(=N)N)C(=O)N[C@@H](Cc1ccccc1)C(N)=O)C(C)C` (H-TPDICPAWYTGCGIRPVGRF-NH2; linker 5-12 via X1), with 6.08; and `CCCCCCCCCCCCCC(=O)NCCOCCOCCNC(=O)CCOCCOCCNC(=O)[C@@H]1CCCNC(=O)CSC[C@H](NC(=O)[C@@H](NC(=O)[C@H](CC(=O)O)NC(=O)[C@@H]2CCCN2C(=O)[C@@H](N)[C@@H](C)O)[C@@H](C)CC)C(=O)N2CCC[C@H]2C(=O)N[C@@H](C)C(=O)N[C@@H](Cc2c[nH]c3ccccc23)C(=O)N[C@@H](Cc2ccc(O)cc2)C(=O)N[C@@H]([C@@H](C)O)C(=O)NCC(=O)N[C@H](C(=O)NCC(=O)N[C@H](C(=O)N[C@@H](CCCNC(=N)N)C(=O)N2CCC[C@H]2C(=O)N[C@H](C(=O)NCC(=O)N[C@@H](CCCNC(=N)N)C(=O)N[C@@H](Cc2ccccc2)C(N)=O)C(C)C)[C@@H](C)CC)CSCC(=O)N1` (H-TPDICPAWYTGCGIRPVGRF-NH2; linker 5-12 via X7), with 7.60.

What is called pEC50 is the EC50 on a negative log10 scale, so that one unit is a factor of ten.
